One assay has as its target KRAS G12D (Homo sapiens, UniProt P01116, G12D). Description: GDP-GTP exchange assay, KRAS G12D (bodipy-GDP/GppNHp, SOS1). The class given is biochemical. The conditions noted are these: bodipy-loaded KRAS G12D 2.5 nM, 4 hours pre-incubation with inhibitor, SOS1 150 nM, GppNHp 500 uM; read-out: G12D_exchange (KRAS_G12D exchange assay IC50). How it is done: (§1) The inhibitor potency of the exemplified compounds was determined in a fluorescence based guanine nucleotide exchange assay, which measures the exchange of bodipy-GDP (fluorescently labeled GDP) for GppNHp (Non-hydrolyzable GTP analog) to generate the active state of KRAS in the presence of SOS1 (guanine nucleotide exchange factor). Inhibitors were serially diluted in DMSO and a volume of 0.1 μL was transferred to the wells of a black low volume 384-well plate. Five μL/well volume of bodipy-loaded KRAS G12D or G12V diluted to a final concentration of 2.5 nM in assay buffer (25 mM Hepes pH 7.5, 50 mM NaCl, 10 mM MgCl2 and 0.01% Brij-35) was added to the plate and pre-incubated with inhibitor for 4 hours (G12D) or 3 hours (G12V) at ambient temperature. A cyclic peptide described to selectively bind G12D mutant (Sakamoto et al., BBRC 484.3 (2017), 605-611) or internal compounds with confirmed binding were used as positive controls in the assay plates. The exchange was initiated by the addition of a 5 μL/well volume containing 1 mM GppNHp and 300 nM SOS1 in assay buffer. The 10 μL/well reaction concentration of the bodipy-loaded KRAS G12D or G12V, GppNHp, and SOS1 were 2.5 nM, 500 uM, and 150 nM, respectively.
(§2) Either GraphPad prism or XLfit was used to analyze the data. The IC50 values were derived by fitting the data to a four parameter logistic equation producing a sigmoidal dose-response curve with a variable Hill coefficient. Prism equation: Y=Bottom+(Top−Bottom)/(1+10^((LogIC50-X)*Hill slope)); XLfit equation: Y=(A+((B−A)/(1+((X/C)^D)))) where X is the logarithm of inhibitor concentration and Y is the response.

The target of the next assay is KRAS G12V (Homo sapiens, UniProt P01116, G12V). Description: GDP-GTP exchange assay, KRAS G12V (bodipy-GDP/GppNHp, SOS1). The format is biochemical. The conditions noted are these: bodipy-loaded KRAS G12V 2.5 nM, 3 hours pre-incubation with inhibitor, SOS1 150 nM, GppNHp 500 uM; read-out: G12V_exchange (KRAS_G12V exchange assay IC50). How it is done: as §1, §2
Chain of KRAS G12V (P01116 1-188 isoform P01116-2 G12V): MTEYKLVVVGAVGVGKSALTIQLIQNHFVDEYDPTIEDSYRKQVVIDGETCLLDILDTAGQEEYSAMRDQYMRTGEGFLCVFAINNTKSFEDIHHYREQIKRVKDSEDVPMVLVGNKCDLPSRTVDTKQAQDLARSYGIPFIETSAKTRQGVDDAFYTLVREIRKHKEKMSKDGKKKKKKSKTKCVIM

Chain of KRAS G12D (P01116 1-188 isoform P01116-2 G12D): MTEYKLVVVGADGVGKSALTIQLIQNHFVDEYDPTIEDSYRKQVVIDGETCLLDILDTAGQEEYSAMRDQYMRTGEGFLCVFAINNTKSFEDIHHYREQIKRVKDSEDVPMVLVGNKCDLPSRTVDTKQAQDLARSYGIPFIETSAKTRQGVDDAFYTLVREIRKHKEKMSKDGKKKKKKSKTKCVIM

Regarding `N#CCCc1cc2c3c(cnc2c(F)c1-c1cc(O)cc2ccccc12)N(c1ccccc1)C(=O)CN3[C@@H]1[C@@H]2CN[C@H]1C2` (relative stereo) [Example 17, 3-(1-((endo)-2-Azabicyclo[2.1.1]hexan-5-yl)-7-fluoro-8-(3-hydroxynaphthalen-1-yl)-3-oxo-4-phenyl-1,2,3,4-tetrahydropyrazino[2,3-c]quinolin-9-yl)propanenitrile], the IC50 at KRAS G12D and on KRAS G12V was 100 to 1000 nM in each case.

Take `C[C@H](Oc1nc2c(F)c(-c3c[nH]c4ccccc34)c(CCC#N)cc2c2c1NC(=O)CN2C1C2CNC1C2)[C@@H]1CCCN1C` (single isomer, unassigned) [Example 1b]: the IC50 at KRAS G12D and at KRAS G12V was 100 to 1000 nM each time.

On to `C[C@H](Oc1nc2c(F)c(-c3cccc(Cl)c3Cl)c(CCC#N)cc2c2c1NC(=O)CN2C1C2CNC1C2)[C@@H]1CCCN1C` (single isomer, unassigned) [Example 2a], for which the concentration for half-maximal inhibition (IC50) at KRAS G12D and at KRAS G12V was 100 to 1000 nM in each case.

`C[C@H](Oc1nc2c(F)c(-c3cccc(Cl)c3Cl)c(CCC#N)cc2c2c1NC(=O)CN2C1C2CNC1C2)[C@@H]1CCCN1C` (single isomer, unassigned) [Example 2c]: the IC50 on KRAS G12D and at KRAS G12V was 100 to 1000 nM throughout.

Take `C[C@H](Oc1nc2c(F)c(-c3cccc4ccc(F)cc34)c(CCC#N)cc2c2c1NC(=O)CN2C1C2CNC1C2)[C@@H]1CCCN1C` (single isomer, unassigned) [Example 3b]: the half-maximal inhibitory concentration (IC50) at KRAS G12D and at KRAS G12V was 100 to 1000 nM in each case.

`C[C@H](Oc1nc2c(F)c(-c3cc(O)cc4ccc(F)cc34)c(CCC#N)cc2c2c1NC(=O)CN2C1C2CNC1C2)[C@@H]1CCCN1C` (single isomer, unassigned) [Example 4a]: the IC50 on KRAS G12D and on KRAS G12V was 1000 to 5000 nM each time.

For the molecule `C[C@H](Oc1nc2c(F)c(-c3cc(O)cc4ccc(F)cc34)c(CCC#N)cc2c2c1NC(=O)CN2C1C2CNC1C2)[C@@H]1CCCN1C` (single isomer, unassigned) [Example 4b], the IC50 at KRAS G12D and on KRAS G12V was 100 to 1000 nM in each case.

As for `CNC(=O)c1ccc(-c2nc3c(F)c(-c4cc(O)cc5ccccc45)c(CCC#N)cc3c3c2NC(=O)CN3C2C3CNC2C3)cn1` (single isomer, unassigned) [Example 5b, 5-(1-((endo)-2-Azabicyclo[2.1.1]hexan-5-yl)-9-(2-cyanoethyl)-7-fluoro-8-(3-hydroxynaphthalen-1-yl)-3-oxo-1,2,3,4-tetrahydropyrazino[2,3-c]quinolin-5-yl)-N-methylpicolinamide], the half-inhibitory concentration (IC50) on KRAS G12D and at KRAS G12V was 1000 to 5000 nM each time.

`N#CCCc1cc2c3c(c(-c4ccc5cccnc5c4)nc2c(F)c1-c1cc(O)cc2ccccc12)NC(=O)CN3C1C2CNC1C2` (single isomer, unassigned) [Example 6b, 3-(1-((endo)-2-Azabicyclo[2.1.1]hexan-5-yl)-7-fluoro-8-(3-hydroxynaphthalen-1-yl)-3-oxo-5-(quinolin-7-yl)-1,2,3,4-tetrahydropyrazino[2,3-c]quinolin-9-yl)propanenitrile]: the concentration for half-maximal inhibition (IC50) at KRAS G12D and on KRAS G12V was 1000 to 5000 nM in each case.

With `Cn1cnc(-c2nc3c(F)c(-c4cc(O)cc5ccccc45)c(CCC#N)cc3c3c2NC(=O)CN3C2C3CNC2C3)c1` (single isomer, unassigned) [Example 7b, 3-(1-((endo)-2-Azabicyclo[2.1.1]hexan-5-yl)-7-fluoro-8-(3-hydroxynaphthalen-1-yl)-5-(1-methyl-1H-imidazol-4-yl)-3-oxo-1,2,3,4-tetrahydropyrazino[2,3-c]quinolin-9-yl)propanenitrile], the IC50 on KRAS G12D lay within 100 to 1000 nM; at KRAS G12V it was 1000 to 5000 nM.

Take `N#CCCc1cc2c3c(c(Cc4ccccc4)nc2c(F)c1-c1cc(O)cc2ccccc12)NC(=O)CN3C1C2CNC1C2` (single isomer, unassigned) [Example 8a, 3-(5-Benzyl-1-((endo)-2-azabicyclo[2.1.1]hexan-5-yl)-7-fluoro-8-(3-hydroxynaphthalen-1-yl)-3-oxo-1,2,3,4-tetrahydropyrazino[2,3-c]quinolin-9-yl)propanenitrile]: the IC50 lay in the range of 100 to 1000 nM on KRAS G12D and 1000 to 5000 nM on KRAS G12V.

Regarding `N#CCCc1cc2c3c(c(Cc4ccccc4)nc2c(F)c1-c1cc(O)cc2ccccc12)NC(=O)CN3C1C2CNC1C2` (single isomer, unassigned) [Example 8b, 3-(5-Benzyl-1-((endo)-2-azabicyclo[2.1.1]hexan-5-yl)-7-fluoro-8-(3-hydroxynaphthalen-1-yl)-3-oxo-1,2,3,4-tetrahydropyrazino[2,3-c]quinolin-9-yl)propanenitrile], the IC50 on KRAS G12D and at KRAS G12V was 5000 to 10000 nM each time.

As to `CNC(=O)c1cccc(-c2nc3c(F)c(-c4cc(O)cc5ccccc45)c(CCC#N)cc3c3c2NC(=O)CN3C2C3CNC2C3)c1` (single isomer, unassigned) [Example 9b, 3-(1-((endo)-2-Azabicyclo[2.1.1]hexan-5-yl)-9-(2-cyanoethyl)-7-fluoro-8-(3-hydroxynaphthalen-1-yl)-3-oxo-1,2,3,4-tetrahydropyrazino[2,3-c]quinolin-5-yl)-N-methylbenzamide], the half-inhibitory concentration (IC50) at KRAS G12D and at KRAS G12V was 1000 to 5000 nM throughout.

As for `N#CCCc1cc2c3c(c(OC[C@@]45CCCN4C[C@H](F)C5)nc2c(F)c1-c1cc(O)cc2ccccc12)NC(=O)CN3C1C2CNC1C2` (single isomer, unassigned) [Example 10c], the half-inhibitory concentration (IC50) at KRAS G12D and on KRAS G12V was 100 to 1000 nM each time.

On to `N#CCCc1cc2c3c(c(OC[C@@]45CCCN4C[C@H](F)C5)nc2c(F)c1-c1cc(O)cc2ccccc12)NC(=O)CN3C1C2CNC1C2` (single isomer, unassigned) [Example 10d], for which the figures for the IC50 on KRAS G12D and on KRAS G12V were 1000 to 5000 nM and 5000 to 10000 nM, respectively.

Consider `C[C@@H](CN(C)C)Oc1nc2c(F)c(-c3cc(O)cc4ccccc34)c(CCC#N)cc2c2c1NC(=O)CN2C1C2CNC1C2` (single isomer, unassigned) [Example 11a], for which the IC50 at KRAS G12D and at KRAS G12V was 5000 to 10000 nM in each case.

Regarding `C[C@@H](CN(C)C)Oc1nc2c(F)c(-c3cc(O)cc4ccccc34)c(CCC#N)cc2c2c1NC(=O)CN2C1C2CNC1C2` (single isomer, unassigned) [Example 11b], the IC50 at KRAS G12D and on KRAS G12V was 5000 to 10000 nM throughout.

`C[C@@H](CN(C)C)Oc1nc2c(F)c(-c3cc(O)cc4ccccc34)c(CCC#N)cc2c2c1NC(=O)CN2C1C2CNC1C2` (single isomer, unassigned) [Example 11d]: the IC50 on KRAS G12D and at KRAS G12V was 100 to 1000 nM in each case.

`CN1CCC[C@H]1COc1nc2c(F)c(-c3cc(O)cc4ccccc34)c(CCC#N)cc2c2c1CCCN2C1C2CNC1C2` (single isomer, unassigned) [Example 12a]: the concentration for half-maximal inhibition (IC50) was in the range of 1000 to 5000 nM at KRAS G12D and 5000 to 10000 nM on KRAS G12V.

For the molecule `CN(C)C1CN(c2nc3c(F)c(-c4cc(O)cc5ccccc45)c(CCC#N)cc3c3c2NC(=O)CN3C2C3CNC2C3)C1` (single isomer, unassigned) [Example 13b, 3-(1-((endo)-2-Azabicyclo[2.1.1]hexan-5-yl)-5-(3-(dimethylamino)azetidin-1-yl)-7-fluoro-8-(3-hydroxynaphthalen-1-yl)-3-oxo-1,2,3,4-tetrahydropyrazino[2,3-c]quinolin-9-yl)propanenitrile], the IC50 on KRAS G12D and on KRAS G12V was 100 to 1000 nM in each case.

Take `CC1Cc2c(OC[C@@H]3CCCN3C)nc3c(F)c(-c4cc(O)cc5ccccc45)c(CCC#N)cc3c2N(C2C3CNC2C3)C1` (single isomer, unassigned) [Example 14c]: the 50% inhibitory concentration (IC50) at KRAS G12D is 1000 to 5000 nM; on KRAS G12V, 5000 to 10000 nM.

Regarding `CC1Cc2c(OC[C@@H]3CCCN3C)nc3c(F)c(-c4cc(O)cc5ccccc45)c(CCC#N)cc3c2N(C2C3CNC2C3)C1` (single isomer, unassigned) [Example 14d], the IC50 at KRAS G12D and at KRAS G12V was 1000 to 5000 nM in each case.

Turning to `C[C@H](Oc1nc2c(F)c(-c3cc(O)cc4ccccc34)c(CCC#N)cc2c2c1CCCN2C1C2CNC1C2)[C@@H]1CCCN1C` (single isomer, unassigned) [Example 15a], the IC50 at KRAS G12D and on KRAS G12V was 1000 to 5000 nM throughout.

In the case of `C[C@@H](CN(C)C)Oc1nc2c(F)c(-c3cc(O)cc4ccccc34)c(CCC#N)cc2c2c1CCCN2C1C2CNC1C2` (single isomer, unassigned) [Example 16a], the IC50 on KRAS G12D and at KRAS G12V was 5000 to 10000 nM in each case.

The IC50 is the concentration that gives 50% inhibition.

The values are drawn from patent US12030883B2, “Hetero-tricyclic compounds as inhibitors of KRAS” (Incyte Corporation, priority 2021, dated 2024).
